Source: patent publication US10550400B2, “Methods to monitor post-translational gene silencing activity in plant tissues/cell types relevant for pathogen entry, propagation or replication” (Paris Sciences et Lettres—Quartier Latin, priority 2014, dated 2020)

What was measured:
Type in all cases: in vivo, Arabidopsis thaliana
[1] = system: phloem-specific IR-PTGS sensor; assay: Visual chlorotic phenotype of sprayed phloem-specific IR-PTGS sensor (SUC-SUL plants); settings: for vein-centered chlorotic phenotype (IR-PTGS activity): sprayed on phloem-specific IR-PTGS sensor; for chlorotic phenotype / PTGS activity, phloem-specific reporter: 2 mM SA with 0.02% Silwet L-77, 5 days, SUC-SUL
Excerpt: A. […]
In step (b), said molecule, microorganism or extract can be applied either at seedling stage or at later developmental stages such as at rosette stage. This molecule, microorganism or extract is applied either in liquid medium in (micro) well-plates, by infiltration using a needle-less syringe or vacuum, or by spray using a concentration of surfactant that is known from people skilled in the art.
Visual observation of step (c) can be made several days, preferably 4 to 5 days, after step (b) The term “silencing” means down-regulating or antagonizing, at least partly, a targeted gene transcript.
For this purpose, they have sprayed a previously characterized phloem-specific IR-PTGS sensor (Dunoyer et al., 2005) with either (1) Salicylic acid (SA), a well-characterized phytohormone that plays a critical role in resistance against biotrophic pathogens, (2) 2,6-dichloroisonicotonic acid and benzo-(1,2,3)-thiadiazole-7-carbothioic acid S-methyl ester (BTH), a functional analog of SA that is regularly used by farmers to enhance disease resistance in crops, (3) Aliette, formulated fosetyl-Aluminium that can stimulate plant antimicrobial defense in cultivated plants but also protect them from fungal and oomycete infections through a potent and systemic fungicide activity, (4) Serenade, which is composed of formulated Bacillus subtilis (5) formulated Laminarine, a beta 1-3 glucan that mimics fungal cell wall and therefore promote natural antifungal defense responses in some cultivated plants; and have further monitored the effects of such treatments on the vein-centered chlorotic phenotype of this IR-PTGS reporter system. […] It is noteworthy that the presented molecular analyses allow us (i) to detect at which steps of the PTGS a given molecule is acting (small RNA biogenesis and/or RISC activity) (ii) to quantify the strength by which the candidate molecules is modulating RNA silencing in a given tissue that is relevant for disease management. […]

SUL protein = assay: Western blot of SUL protein levels in SA-treated SUC-SUL leaves; settings: 2 mM SA + 0.01% Silwet L-77, 3 days, vs Mock
Protocol: C. Western blot analyses showing SUL and CIP4 protein levels in SUC-SUL leaves treated with either Mock (0.01% Silwet L-77 only) or with 2 mM of SA (+0.01% Silwet L-77) for 3 days.
(§1) For this purpose, they have sprayed a previously characterized phloem-specific IR-PTGS sensor (Dunoyer et al., 2005) with either (1) Salicylic acid (SA), a well-characterized phytohormone that plays a critical role in resistance against biotrophic pathogens, (2) 2,6-dichloroisonicotonic acid and benzo-(1,2,3)-thiadiazole-7-carbothioic acid S-methyl ester (BTH), a functional analog of SA that is regularly used by farmers to enhance disease resistance in crops, (3) Aliette, formulated fosetyl-Aluminium that can stimulate plant antimicrobial defense in cultivated plants but also protect them from fungal and oomycete infections through a potent and systemic fungicide activity, (4) Serenade, which is composed of formulated Bacillus subtilis (5) formulated Laminarine, a beta 1-3 glucan that mimics fungal cell wall and therefore promote natural antifungal defense responses in some cultivated plants; and have further monitored the effects of such treatments on the vein-centered chlorotic phenotype of this IR-PTGS reporter system. […]

SUL transcript = assay: RT-qPCR of SUL transcript levels in SA-treated SUC-SUL leaves; settings: 2 mM SA + 0.01% Silwet L-77, 3 days, vs Mock
Protocol: B. RT-qPCR analysis depicting SUL and CIP4 transcript levels in SUC-SUL leaves treated with either Mock (0.01% Silwet L-77 only) or with 2 mM of SA (+0.01% Silwet L-77) for 3 days.
as §1

artificial siRNAs = system: artificial siRNAs
Excerpt: These level analyses will determine (i) at which steps of the RNA silencing pathway a given molecule, microorganism or extract is acting (small RNA biogenesis, accumulation and/or activity) (ii) the intensity by which a given molecule, microorganism or extract is modulating RNA silencing. Regarding the quantification of artificial or endogenous small RNA accumulation, Low Molecular Weight (LMW) Northern blot analyses or Real Time quantitative PCR (RT-qPCR) analyses can be used. Concerning the quantification of artificial or endogenous small RNA targets, High Molecular Weight (HMW) Northern analyses or RT-PCR analyses can be used. […]

[2] = system: biosensor specific to xylem parenchyma cells; assay: Visual chlorosis of sprayed xylem-specific biosensors (AAP6-p::SUL-LUS, IRX3-p::SUL-LUS); settings: 2 mM SA with 0.02% Silwet L-77, 5 days, AAP6-p::SUL-LUS and IRX3-p::SUL-LUS; listed as SA
Protocol: Picture of 5-week-old SUC-SUL, HYD-p::SUL-LUS, AAP6-p::SUL-LUS, IRX3-p::SUL-LUS or GC1-p::SUL-LUS plants treated either Mock (0.02% Silwet L-77 only) or 2 mM of SA (with 0.02% Silwet L-77) for 5 days.
To test whether the increase level of PTGS detected in SA-treated phloem-specific IR-PTGS sensor is detectable to other tissues, the inventors have sprayed different tissue-specific biosensors with the same concentration of SA. The biosensors specific to hydathodes, xylem parenchyma cells, guard cells and companion cells of phloem were sprayed with SA and the level of chlorosis was assessed 5 day later (FIG. 6). […] These observations therefore highlight the importance of using different tissue-specific biosensors to screen natural or synthetic compounds, microorganisms, macro- or micro-organism extracts that can have a PTGS inducer activity specifically in a given tissue that is relevant to manage a specific disease. On the contrary, we are anticipating that the whole series of reporters will be also exploited to identify molecules, microorganisms or extracts that can induce PTGS/immune responses in all the above tissues. Such compounds, microorganisms or extracts will have the potential to confer broad-spectrum disease resistance and to restrict growth of pathogens with different modes of entry, propagation and replication. […]

| SMILES | vein-centered chlorotic phenotype (IR-PTGS activity) [1] | chlorotic phenotype / PTGS activity, phloem-specific reporter [1] | chlorotic phenotype / PTGS activity, phloem-specific reporter ([1]; listed as SA) | SUL protein levels (SUL protein) | SUL transcript accumulation (SUL transcript) | accumulation of artificial siRNAs (artificial siRNAs) | chlorotic phenotype / PTGS activity, xylem parenchyma reporters [2] |
| --- | --- | --- | --- | --- | --- | --- | --- |
| O=C(O)c1cc(Cl)nc(Cl)c1 [2,6-dichloroisonicotonic acid] | significant enhanced chlorotic phenotypes | – | – | – | – | – | – |
| O=C(O)c1ccccc1O [Salicylic acid] | significant enhanced chlorotic phenotypes | promotes PTGS activity | significant enhanced chlorotic phenotype | significant decrease | mild reduction | no significant effect | not in other silencing reporter tested |
| CSC(=O)c1cccc2nnsc12 [BTH, benzo-(1,2,3)-thiadiazole-7-carbothioic acid S-methyl ester] | significant enhanced chlorotic phenotypes | – | – | – | – | – | – |
